Measurements from patent publication US7838522B2, “Benzothiazole formulations and use thereof” (Ares Trading S.A., priority 2004, dated 2010).

Assay: Pharmacokinetic profile after oral administration in Beagle dogs
Assay type: in vivo
Conditions: dog, plasma, 10.6 mg/kg, Compound A in Water for Injection
Protocol: Macrogol Glyceride formulations were orally administered in Beagle dogs as extemporaneous suspension in PBS at a dose of 10.6 mg/kg following the protocol below, by gavage in a volume of 2 mL/kg and bulk formulation by forced introduction into the throat.
The formulations were administered to the animals which had fasted overnight (i.e. for about 16 hours) before treatment, food was allowed again 4 hours after treatment.
Macrogol Glyceride formulations (1) and (2) were orally administered as described above. A wash-out interval between the administration of formulation (1) and of formulations (2) was of at least 1 week.
6 Beagle dogs (3 males and 3 females) of about 10-13 kg of bodyweight and of age 9 to 12 months were used. Animals were weighed fasted before administration and the body weight recorded.
Blood (at least 2.5 ml) was collected from a jugular vein into heparinised tubes before and after dosing, at the following 15 times:
Blood was centrifuged within 15 min at about 2500 g at +4° C. for 10 min. Blood cells were discharged and plasma obtained was divided into 3 aliquots (at least 0.3 mL each). The plasma concentrations of Compound A (free base of Compound A, mesylate) in the unknown dog plasma samples was determined by a High Performance Liquid Chromatography/Mass Spectrometry (HPLC/MS). […]

For `N#CC(c1ccnc(OCc2ccc(CN3CCOCC3)cc2)n1)c1nc2ccccc2s1` (stereo not shown) [Compound A, 1,3 benzothiazol-2-yl-[2-(4-morpholin-4-ylmethyl-benzyloxy)-pyrimidin-4-yl]-acetonitrile], the bioavailability was < 15%.
